The record followed here is patent publication US12459974B2, “Bicyclic peptide ligands specific for Nectin-4” (priority 2018, dated 2025).

*1 amine or outer side, *2 acyl side, *3 side chain or, on linkers, in order; H or OH if unused. Where a SMILES comes first, the peptide text is derived from it. Bridges are numbered along the chain shown (N, C = ends). Roman numbers before positions name the chains, in order. [ ]: non-standard residue; d: D form. The star is where a group is joined. TATA = O=C(CC[*:1])N1CN(C(=O)CC[*:2])CN(C(=O)CC[*:3])C1; Dolaproine = CO[C@@H]([C@@H]1CCCN1)[C@@H](C)C(=O)O; Dil = CC[C@H](C)[C@H](NC)[C@@H](CC(=O)O)OC; X3 = O=C(CCCC(=O)[*:2])NCCC(=O)[*:1]; PABC = O=C(OCc1ccc(N[*:1])cc1)[*:2]; X4 = C[C@@H](N*)[C@@H](O)c1ccccc1; hArg = N=C(N)NCCCC[C@H](N)C(=O)O; Cit = NC(=O)NCCC[C@H](N)C(=O)O; NMeV = CN[C@H](C(=O)O)C(C)C; Sar = CNCC(=O)O

Series [1] concerns the target T1, human Nectin-4 (Homo sapiens, UniProt Q96NY8).
T1 sequence (Q96NY8 32-510): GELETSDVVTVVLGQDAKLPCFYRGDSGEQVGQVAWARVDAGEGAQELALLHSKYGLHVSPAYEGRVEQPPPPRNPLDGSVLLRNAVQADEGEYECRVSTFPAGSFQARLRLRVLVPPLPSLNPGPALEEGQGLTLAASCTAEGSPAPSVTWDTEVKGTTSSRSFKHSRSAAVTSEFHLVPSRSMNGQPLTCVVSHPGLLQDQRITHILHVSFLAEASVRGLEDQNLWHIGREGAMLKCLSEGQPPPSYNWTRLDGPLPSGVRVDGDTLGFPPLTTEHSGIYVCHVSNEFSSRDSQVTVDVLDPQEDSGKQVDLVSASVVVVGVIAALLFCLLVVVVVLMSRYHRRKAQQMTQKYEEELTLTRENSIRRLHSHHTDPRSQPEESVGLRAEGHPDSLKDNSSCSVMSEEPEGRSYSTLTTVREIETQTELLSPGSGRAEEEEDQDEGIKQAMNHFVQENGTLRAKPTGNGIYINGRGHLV
Put plainly: Nectin-4 direct binding assay (fluorescence polarisation). The settings on record: fluorescently tagged peptide, TATA scaffold. Here is the method:
Affinity of the peptides of the invention for human Nectin-4 (Ki) was determined using a fluorescence polarisation assay, in accordance with the methods disclosed in WO 2016/067035. Peptides of the invention with a fluorescent tag (either fluorescein, SIGMA or Alexa Fluor488™, Fisher Scientific) were diluted to 2.5 nM in PBS with 0.01% tween 20 or 50 mM HEPES with 100 mM NaCl and 0.01% tween pH 7.4 (both referred to as assay buffer). This was combined with a titration of protein in the same assay buffer as the peptide to give 1 nM peptide in a total volume of 25 μL in a black walled and bottomed low bind low volume 384 well plates, typically 5 μL assay buffer, 10 μL protein then 10 μL fluorescent peptide. […] Measurements were conducted on a BMG PHERAstar FS equipped with an “FP 485 520 520” optic module which excites at 485 nm and detects parallel and perpendicular emission at 520 nm. The PHERAstar FS was set at 25° C. with 200 flashes per well and a positioning delay of 0.1 second, with each well measured at 5 to 10 minute intervals for 60 minutes. The gain used for analysis was determined for each tracer at the end of the 60 minutes where there was no protein in the well. Data was analysed using Systat Sigmaplot version 12.0. mP values were fit to a user defined quadratic equation to generate a Kd value: f=ymin+(ymax−ymin)/Lig*((x+Lig+Kd)/2-sqrt((((x+Lig+Kd)/2)^2)−(Lig*x))). […]

Series [2] concerns the target T1, human Nectin-4. Put plainly: Nectin-4 competition binding assay (fluorescence polarisation). The settings on record: competition with fluorescent peptide SEQ ID NO: 217; read-out: Ki. The gist of the method:
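Ki derived by cubic-equation fit of mP data, with tracer peptide concentration, its Kd and Nectin-4 level as fixed inputs. Competition set up by adding 2-fold peptide dilutions (≤5% DMSO), then Nectin-4, then fluorescent peptide; polarisation measured as for direct binding.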

Series [3] deals with T2, human Nectin-4 (Homo sapiens, UniProt Q96NY8).
T2 sequence (Q96NY8 32-349): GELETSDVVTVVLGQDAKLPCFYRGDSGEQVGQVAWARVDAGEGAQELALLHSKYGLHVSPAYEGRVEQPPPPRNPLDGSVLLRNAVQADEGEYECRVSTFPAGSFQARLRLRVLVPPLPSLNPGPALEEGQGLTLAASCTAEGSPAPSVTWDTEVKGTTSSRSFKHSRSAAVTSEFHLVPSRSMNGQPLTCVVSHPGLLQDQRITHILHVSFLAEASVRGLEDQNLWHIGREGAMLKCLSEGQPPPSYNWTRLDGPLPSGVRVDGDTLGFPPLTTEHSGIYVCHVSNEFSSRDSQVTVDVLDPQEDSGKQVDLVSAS
Put plainly: Nectin-4 Biacore SPR binding assay. (In general: SPR reads the build-up and loss of mass on a sensor chip optically.)
Experimental: Biacore experiments were performed to determine ka (M^−1 s^−1), kd (s^−1), KD (nM) values of monomeric peptides binding to human Necin-4 protein (obtained from Charles River).
Human Nectin-4 (residues Gly32-Ser349; NCBI RefSeq: NP_112178.2) with a gp67 signal sequence and C-terminal FLAG tag was cloned into pFastbac-1 and baculovirus made using standard Bac-to-Bac™ protocols (Life Technologies). Sf21 cells at 1×10^6 ml^−1 in Excell-420 medium (Sigma) at 27° C. were infected at an MOI of 2 with a P1 virus stock and the supernatant harvested at 72 hours. […] The protein was eluted with 100 μg/ml FLAG peptide. The eluted protein was concentrated to 2 ml and loaded onto an S-200 Superdex column (GE Healthcare) in PBS at 1 ml/min. 2 ml fractions were collected and the fractions containing Nectin-4 protein were concentrated to 16 mg/ml.
The protein was extensively desalted to remove uncoupled biotin using spin columns into PBS.
For analysis of peptide binding, a Biacore 3000 instrument was used utilising a CM5 chip (GE Healthcare). Streptavidin was immobilized on the chip using standard amine-coupling chemistry at 25° C. with HBS-N (10 mM HEPES, 0.15 M NaCl, pH 7.4) as the running buffer. Briefly, the carboxymethyl dextran surface was activated with a 7 minute injection of a 1:1 ratio of 0.4 M 1-ethyl-3-(3-dimethylaminopropyl) carbodiimide hydrochloride (EDC)/0.1 M N-hydroxy succinimide (NHS) at a flow rate of 10 μl/min. For capture of streptavidin, the protein was diluted to 0.2 mg/ml in 10 mM sodium acetate (pH 4.5) and captured by injecting 120 μl of streptavidin onto the activated chip surface. Residual activated groups were blocked with a 7 minute injection of 1 M ethanolamine (pH 8.5) and biotinylated Nectin-4 captured to a level of 1,200-1,800 RU. Buffer was changed to PBS/0.05% Tween 20 and a dilution series of the peptides was prepared in this buffer with a final DMSO concentration of 0.5%. The top peptide concentration was 100 nM with 6 further 2-fold dilutions. The SPR analysis was run at 25° C. at a flow rate of 50 μl/min with 60 seconds association and dissociation between 400 and 1,200 seconds depending upon the individual peptide. Data were corrected for DMSO excluded volume effects. All data were double-referenced for blank injections and reference surface using standard processing procedures and data processing and kinetic fitting were performed using Scrubber software, version 2.0c (BioLogic Software). Data were fitted using simple 1:1 binding model allowing for mass transport effects where appropriate.

The next series deals with HT-1376 xenograft. Put plainly: Example 2: in vivo efficacy in HT-1376 xenograft (bladder cancer model) in CB17-SCID mice. The settings on record: 1 mg/kg.

Experimental for HT-1376 xenograft: The major endpoint was to see if the tumor growth could be delayed or mice could be cured. Tumor volume was measured three times weekly in two dimensions using a caliper, and the volume was expressed in mm^3 using the formula: V=0.5 a×b^2 where a and b are the long and short diameters of the tumor, respectively. The tumor size was then used for calculations of T/C value. The T/C value (in percent) is an indication of antitumor effectiveness; T and C are the mean volumes of the treated and control groups, respectively, on a given day. TGI was calculated for each group using the formula: TGI (%)=[1−(Ti−T0)/(Vi−V0)]×100; Ti is the average tumor volume of a treatment group on a given day, T0 is the average tumor volume of the treatment group on the day of treatment start, Vi is the average tumor volume of the vehicle control group on the same day with Ti, and V0 is the average tumor volume of the vehicle group on the day of treatment start.
A one-way ANOVA was performed to compare tumor volume among groups, and when a significant F-statistics (a ratio of treatment variance to the error variance) was obtained, comparisons between groups were carried out with Games-Howell test. […] P<0.05 was considered to be statistically significant.
• Species: Mus Musculus • Strain: CB17-SCID • Age: 6-8 weeks • Sex: female • Body weight: 18-22 g • Number of animals: 21-41 mice plus spare • Animal supplier: Shanghai LC Laboratory Animal Co., LTD.
The HT-1376 tumor cells were maintained in vitro as a monolayer culture in EMEM medium supplemented with 10% heat inactivated fetal bovine serum at 37° C. in an atmosphere of 5% CO2 in air. The tumor cells were routinely subcultured twice weekly by trypsin-EDTA treatment.
Each mouse was inoculated subcutaneously at the right flank with HT-1376 tumor cells (5×10^6) in 0.2 ml of PBS with matrigel (1:1) for tumor development. Animals were randomized when the average tumor volume reached 153-164 mm^3.
Tumor growth inhibition rate for Test articles in the HT-1376 xenograft model was calculated based on tumor volume measurements at day 21 after the start of treatment.

What is called Ki is a dissociation constant, usually derived from enzyme kinetics or from competition with a known ligand. The compound `CC[C@H](C)[C@@H]1NC(=O)[C@H](CCCNC(=N)N)NC(=O)[C@H](CC(=O)O)NC(=O)[C@@H]2CSCCC(=O)N3CN(CN(C3)C(=O)CCSC[C@@H](C(=O)N[C@@H](C)C(N)=O)NC1=O)C(=O)CCSC[C@H](NC(=O)[C@H](Cc1c[nH]c3ccccc13)NC(=O)[C@H](CC(=O)O)NC(=O)[C@@H](N)C(C)C)C(=O)N[C@@H](C)C(=O)N1CCC[C@H]1C(=O)N[C@@H](CC(C)C)C(=O)N[C@@H](CC(=O)O)C(=O)N[C@@H](CC(=O)O)C(=O)N[C@@H](Cc1ccc(O)cc1)C(=O)N[C@@H](Cc1c[nH]c3ccccc13)C(=O)N2` [BCY462, VDW-(SEQ ID NO: 33)-A] (H-VDWCAPLDDYWCDRICA-NH2; linker 4-12-16 via TATA; N-terminus and C-terminus assumed) had a Ki at human Nectin-4 [1] of 269 nM.
In the case of `CC[C@H](C)[C@@H]1NC(=O)[C@H](CCCNC(=N)N)NC(=O)[C@H](CC(N)=O)NC(=O)[C@@H]2CSCCC(=O)N3CN(CN(C3)C(=O)CCSC[C@@H](C(=O)N[C@@H](C)C(N)=O)NC1=O)C(=O)CCSC[C@H](NC(=O)[C@H](Cc1c[nH]c3ccccc13)NC(=O)[C@H](CCCCN)NC(=O)[C@@H](N)CCC(N)=O)C(=O)N[C@@H](C)C(=O)N1CCC[C@H]1C(=O)N[C@@H](CC(C)C)C(=O)N[C@@H](CO)C(=O)N[C@@H](CC(=O)O)C(=O)N[C@@H](Cc1ccc(O)cc1)C(=O)N[C@@H](Cc1c[nH]c3ccccc13)C(=O)N2` [BCY3400, QKW-(SEQ ID NO: 34)-A] (H-QKWCAPLSDYWCNRICA-NH2; linker 4-12-16 via TATA; N-terminus and C-terminus assumed), the values for the Ki on human Nectin-4 [1] and at human Nectin-4 [2] were 72 nM and 47 nM, respectively.
The Kd is a measure of binding affinity in units of concentration. Lower therefore signals higher affinity. Take `CC(=O)N[C@H]1CSCCC(=O)N2CN3CN(C2)C(=O)CCSC[C@H](NC(=O)[C@H](CC(=O)O)NC(=O)[C@H](Cc2ccc(O)cc2)NC(=O)[C@H](CO)NC(=O)[C@H]([C@@H](C)O)NC(=O)[C@H]([C@@H](C)O)NC(=O)[C@H](C(C)C)NC1=O)C(=O)N[C@@H](Cc1c[nH]c2ccccc12)C(=O)N[C@@H](C(C)C)C(=O)N[C@@H]([C@@H](C)O)C(=O)N[C@@H](CC(C)C)C(=O)NCC(=O)N[C@@H](Cc1c[nH]cn1)C(=O)N[C@H](C(=O)N[C@@H](CO)C(=O)N[C@@H](CCCNC(=N)N)C(=O)N[C@@H](Cc1ccccc1)C(N)=O)CSCCC3=O` [BCY7393, Ac-(SEQ ID NO: 37)-SRF] (Ac-CVTTSYDCWVTLGHCSRF-NH2; linker 1-8-15 via TATA; C-terminus assumed): the Ki at human Nectin-4 [2] is 232 nM. Moreover, at human Nectin-4 [3], the Kd amounted to 1380 nM.
At human Nectin-4 [3], `CC[C@H](C)[C@@H]([C@@H](CC(=O)N1CCC[C@H]1[C@H](OC)[C@@H](C)C(=O)N[C@H](C)[C@@H](O)c1ccccc1)OC)N(C)C(=O)[C@@H](NC(=O)[C@H](C(C)C)N(C)C(=O)OCc1ccc(NC(=O)[C@H](CCCNC(N)=O)NC(=O)[C@@H](NC(=O)CCCC(=O)NCCC(=O)N(C)CC(=O)N(C)CC(=O)N(C)CC(=O)N(C)CC(=O)N(C)CC(=O)N(C)CC(=O)N(C)CC(=O)N(C)CC(=O)N(C)CC(=O)N(C)CC(=O)N[C@H]2CSCCC(=O)N3CN4CN(C3)C(=O)CCSC[C@H](NC(=O)[C@@H](CC(=O)O)NC(=O)[C@H](Cc3ccccc3)NC(=O)[C@@H]3CCCN3C2=O)C(=O)N[C@@H](CCSC)C(=O)N[C@@H](CCCCNC(=N)N)C(=O)N[C@@H](CC(N)=O)C(=O)N[C@@H](Cc2c[nH]c3ccccc23)C(=O)N[C@@H](CO)C(=O)N[C@@H]([C@@H](C)O)C(=O)N2CCC[C@H]2C(=O)N[C@@H]([C@@H](C)CC)C(=O)N[C@@H](Cc2c[nH]c3ccccc23)C(=O)N[C@H](C(N)=O)CSCCC4=O)C(C)C)cc1)C(C)C` [BCY7825, MMAE-PABC-Cit-Val-Glutaryl-BCY7814] (I: [Sar][Sar][Sar][Sar][Sar][Sar][Sar][Sar][Sar][Sar]CPF[dD]CM[hArg]NWSTPIWC-NH2 / II: V[Cit][PABC][NMeV]V[Dil][Dolaproine]-X4; linker I:11-I:15-I:25 via TATA; linker I:N-II:N via X3) gave an equilibrium dissociation constant (Kd) of 11.6 nM. Moreover, the “bodyweight (in words)” value in the series on HT-1376 xenograft is recorded as “maintained the bodyweight well”.
Regarding `CC(=O)N[C@H]1CSCCC(=O)N2CN3CN(C2)C(=O)CCSC[C@H](NC(=O)[C@@H](CC(=O)O)NC(=O)[C@H](Cc2ccccc2)NC(=O)[C@@H]2CCCN2C1=O)C(=O)N[C@@H](CC(C)C)C(=O)N[C@@H](CCCCNC(=N)N)C(=O)N[C@@H](CC(N)=O)C(=O)N[C@@H](Cc1c[nH]c2ccccc12)C(=O)N[C@@H](CO)C(=O)N[C@@H]([C@@H](C)O)C(=O)N1CCC[C@H]1C(=O)N1CCC[C@H]1C(=O)N[C@@H](Cc1c[nH]c2ccccc12)C(=O)N[C@H](C(N)=O)CSCCC3=O` [BCY8038, Ac-(SEQ ID NO: 160)] (Ac-CPF[dD]CL[hArg]NWSTPPWC-NH2; linker 1-5-15 via TATA; C-terminus assumed), the Ki on human Nectin-4 [2] was 8 nM. This compound also yielded a Kd at human Nectin-4 [3] of 44.5 nM.
